Data reported in patent publication US7169907B2, “Derivatives, immunogens, and antibodies for detecting ecstasy-class drugs” (Roche Diagnostics Operations, Inc., priority 2002, dated 2007).

Experiments:
[1] = tested on: antibody NEAMP-1.3; experiment: Cross-reactivity assay (competitive ELISA) of antibody NEAMP-1.3; format: binding, mice; settings: ED50 of standard divided by ED50 of drug, times 100
Procedure: (§1) By determining the drug concentration that results in a 50% reduction in binding (ED 50) of a standard, methamphetamine, dividing by the ED50 of each other drug, and then multiplying the result by 100, the percent cross-reactivities shown in Table 2 can be calculated.
Microplates were coated with 100 μL Methamphetamine-BSA conjugate 28 and separate plates with 100 μL N-ethylamphetamine-BSA 26 (Q=BSA, 26b) at 1 μg/mL in 0.1 M carbonate buffer, pH 9.5 for 1 hour at 37° C. (humidified).
A criterion for selection was binding to the Methamphetamine-BSA conjugate 28. Table 5 presents binding data for a portion of the screening of the Meth-BSA 28 and NEAMP-BSA 26 (Q=BSA, 26b) coated plates.
(§2) Supernatants are subjected to serial dilutions and re-tested in the ELISA screen above. The dilution providing for about a 50% reduction from the maximum OD is chosen for proceeding to cross-reactivity testing. This consists of repeating the preceding assay with the antibody at the chosen dilution and in the presence of varying concentrations of drugs.

[2] = tested on: antibody MDMA-2.1.1; experiment: Cross-reactivity assay (competitive ELISA) of antibody MDMA-2.1.1; format: binding, mice; settings: ED50 of standard divided by ED50 of drug, times 100
Source text: as §1
as §2, with “drugs. The charts shown in FIG. 5 and FIG. 6 present the results of such determinations.” for “drugs.”

Compound | Percent Cross-Reactivity [1] [%] | % Cross-reactivity [2] [%]
CN[C@@H](C)Cc1ccccc1 [d-MAMP, d-methamphetamine] | 100 | –
CN[C@@H](C)[C@@H](O)c1ccccc1 [Pseudoephedrine, pseudoephedrine] | 2.0 | –
CN[C@@H](C)Cc1ccc2c(c1)OCO2 [d-MDMA] | – | 100
CCNC(C)Cc1ccc2c(c1)OCO2 (stereo not drawn) [MDEA, 3,4-methylenedioxy-N-ethylamphetamine] | 507 | –
CNC(C)Cc1ccc2c(c1)OCO2 (stereo not drawn) [MDMA, 3,4-methylenedioxy-N-methylamphetamine] | 114 | –
C[C@H]1[C@H](c2ccccc2)OCCN1C [Phendimetrazine] | 0.6 | –
CCC(Cc1ccc2c(c1)OCO2)NC (stereo not drawn) [MBDB, 3,4-methylenedioxyphenyl-N-methylbutanamine] | 20 | –
C[C@H](N)Cc1ccccc1 [d-AMP, d-amphetamine] | 32.5 | –
CN[C@@H](C)[C@H](O)c1ccccc1 [I-ephedrine] | 6.7 | –
